Where two headings read alike, the source gives them in different places.
How the values were obtained:
G3PDH or PGK = assay: Stop reagent test in DeathTRAK reaction with G3PDH test enzyme; assay type: biochemical; settings: ~3 mM final BPV, added after 21 minutes, with and without added PGK
From the text: In another aspect, the present invention provides methods and compositions for a single-timepoint coupled luminescent assay, making use of a stop reagent to end the production of the high-energy molecule that is the luciferase substrate, while allowing the luciferase reaction to continue. In a preferred embodiment of this concept, an inhibitor of G3PDH or PGK is used to stop production of ATP in the DeathTRAK reactions of Examples 1 and 2. […] It is also possible to perform a single read without a stop reagent, but the stop reagent allows the read to be done at a time convenient to the user, multiple times, or for an extended period. […] Any molecule which inhibits G3PDH and/or PGK, but inhibits luciferase to a lesser or insignificant degree, might be used.
To a 0.5-mL aliquot of this cocktail, 0.0016 mL of 1:1,000,000-diluted PGK were added (termed “+PGK” cocktail). Two 0.045-mL aliquots of the standard unoptimized cocktail and two 0.045-mL aliquots of the “+PGK” cocktail were measured into a luminescent microtiter plate. 0.005 mL of 1:100,000-diluted G3PDH was transferred to each of these four aliquots of cocktail. […] Use of this or an alternative stop reagent allows the user to delay reading the plate, while maintaining the relative signal strengths of the samples.

Group-A Streptococci [1] = tested on: Group-A Streptococci
Protocol: (§3) The A600 was 0.356. […] After washing the cells were grown for 90 minutes at 37C with 240 rpm shaking. Antibiotics or PBS (vehicle) were then added in 5 μL, and the protective cocktail containing dithiothreitol and protease inhibitor cocktail was added in a further 5 μL. The cells were incubated at 37C with 240 rpm shaking for a further 90 minutes, whereupon the DeathTRAK cocktail was added and the cytotoxicity read as described above for Gram negatives. The total-lysis agent, 10 μL of 2% Nonidet P-40, was then added, and the proliferation/viability signal was read as above for Gram negatives.

E. coli strain K1 [2] = assay: DeathTRAK cytotoxicity mode, antibiotics on E. coli
Protocol: (§1) FIGS. 13-15 illustrate the use of cytotoxicity/proliferation mode to characterize the effects of various antibiotics on E. coli cells. First, the cytotoxicity signal was obtained by adding the DeathTRAK reagent cocktail directly to the toxicity reaction, three hours after the antibiotics were added to the E. coli culture. The luminance was measured and recorded (FIG. 13), whereupon the lytic agent was added, and the luminance was immediately measured again (FIG. 14).
(§2) E. coli (strain K1, obtained from Dr. Craig Rubens of Children's Hospital and Regional Medical Center, Seattle, Wash.) were inoculated from a frozen permanent into 1-2 mL of LB, grown overnight, diluted 1:20 into LB, grown a further 106 minutes at 37C with 240 rpm shaking, harvested by centrifugation, washed twice with LB, and resuspended to a final A600 of 1.549. It was determined by colony-forming unit assays that an A600 of 2.18 corresponds to ˜3.02×10^8 cells/mL. This was diluted to 200,000/mL and a 10% volume of 10 mM dithiothreitol and 1% protease inhibitor cocktail in LB was added (yielding 0.1% protease inhibitor cocktail after mixing). 55 μL of this mixture was distributed to each test well of a 96-well white luminance microtiter plate, whereupon 5 μL of antibiotic or PBS (vehicle) was added. The plate was shaken at 240 rpm for 3 hours at 37C. 40 μL of DeathTRAK cocktail was then added and luminance was read for ˜8 minutes. The lytic agent was then made up as equal parts 6000 units/mL polymyxin B and 50% lysozyme, both in PBS. 10 μL of this lytic agent was added to each well and the second luminance readout (proliferation/viability) was taken.

E. coli strain K1 [3] = assay: DeathTRAK proliferation/viability mode after polymyxin B/lysozyme lysis, antibiotics on E. coli; assay type: cell-based; settings: for Proliferation/Viability: E. coli, Table V, DeathTRAK readout after lytic agent
Protocol: as §1, §2

E. coli = assay: Colony-forming unit (CFU) tests of antibiotic-treated cultures; assay type: cell-based; settings: E. coli cultures plated at various dilutions
Group-A Streptococci [4] = assay: DeathTRAK proliferation/viability mode after Nonidet P-40 lysis, Group-A Streptococci; assay type: cell-based, Group-A Streptococcus; settings: 90 minutes with antibiotic, after Nonidet P-40 lysis (FIG. 17)
From the text: These are Gram positive organisms. […] However, both cytotoxicity and proliferation effects are seen. […] Finally, the result with gentamicin is distinctive.

Group-A Streptococci [5] = assay: DeathTRAK cytotoxicity mode, antibiotics on Group-A Streptococci; settings: 90 minutes with antibiotic (FIG. 16)
Protocol: as §3

DeathTRAK signal = assay: Effect of detergent on the DeathTRAK signal; assay type: biochemical; settings: at 0.1% Nonidet P-40; changes very little above approximately 0.1%
From the text: FIG. 12 illustrates the use of cytotoxicity/proliferation mode to measure both the cytotoxic effects and the total cell number after addition of the detergent Nonidet P40 to the mammalian cell line 841 CON. Similar results have been obtained with the PC-3 prostate cancer and T24 bladder-cancer cell lines. In these experiments, the detergent is used as both the toxin and the final lytic agent. Thus the cytotoxicity signal in FIG. 12 represents the signal obtained after the indicated quantities of detergent were added to the cells, and the proliferation signal in the same figure represents the signals obtained after an additional 0.2% Nonidet P-40 was added to all the cells. […] Thus Nonidet P-40 can be used as the universal lytic agent for measuring proliferation of mammalian cells, provided that if it is desired to compare the cytotoxicity and proliferation signals, the final signal must be corrected for the inhibitory effect of the detergent. If the final detergent concentration used is above approximately 0.1%, then this correction will consist essentially of multiplication by a constant. However, if proliferation signals alone are to be compared, this correction is not necessary. Note that in FIG. 12, the proliferation signal is fairly constant. This is because each experiment began with the same number of cells seeded into each well. […]

[6] = E. coli K1, three hours with antibiotic, after lytic agent (FIG. 14)

Molecule	Cytotoxicity (E. coli strain K1 [2])	cytotoxicity signal (E. coli strain K1 [2])	effect on proliferation/viability (E. coli strain K1 [3]; [6])	Proliferation/Viability (E. coli strain K1 [3])	toxicity by CFU assay (E. coli)	proliferation/viability signal (Group-A Streptococci [4])	cytotoxicity signal (Group-A Streptococci [5])	also measured
O=C(O)C(=O)CBr [BPV, bromopyruvic acid]								increase in luminance (ATP production) in DeathTRAK reaction (G3PDH or PGK): stopped the increase in luminance
CC1(C)S[C@@H]2[C@H](NC(=O)C(C(=O)O)c3ccccc3)C(=O)N2[C@H]1C(=O)O (some centres unmarked) [Carbenicillin]	+	strong cytotoxicity	strong inhibitory effect on proliferation/viability	+	toxic			cytotoxicity signal (Group-A Streptococci [1]): identified as a lytic agent
Nc1ccc(S(N)(=O)=O)cc1 [Sulfanilamide]	−	no toxicity	no toxicity or effect on proliferation/viability					
CN[C@H](CC(C)C)C(=O)N[C@H]1C(=O)N[C@@H](CC(N)=O)C(=O)N[C@H]2C(=O)N[C@H]3C(=O)N[C@H](C(=O)N[C@H](C(=O)O)c4cc(O)cc(O)c4-c4cc3ccc4O)[C@H](O)c3ccc(c(Cl)c3)Oc3cc2cc(c3O[C@@H]2O[C@H](CO)[C@@H](O)[C@H](O)[C@H]2O[C@H]2C[C@](C)(N)[C@H](O)[C@H](C)O2)Oc2ccc(cc2Cl)[C@H]1O [Vancomycin]			slight inhibition of proliferation/viability	+	toxic	very strong reduction in the proliferation/viability signal	little or no direct cytotoxicity	cytotoxicity signal (E. coli strain K1 [2]; E. coli K1, three hours after antibiotics were added (FIG. 13)): slight but statistically significant toxicity; Cytotoxicity (E. coli strain K1 [2]; E. coli, Table V, DeathTRAK cytotoxicity readout): +
Gentamicin				+		strongly toxic	negative toxicity signal	Cytotoxicity (E. coli strain K1 [2]; E. coli K1, 90 minutes (FIG. 15)): no cytotoxicity; effect on proliferation/viability (E. coli strain K1 [3]; E. coli K1, similar experiment, 90 minutes (FIG. 15)): strong effect on proliferation/viability
Nonidet P-40								inhibition of DeathTRAK signal (DeathTRAK signal): approximately 45%

Reference: patent US6811990B1, “Methods and compositions for coupled luminescent assays” (priority 2001, dated 2004)
